These results are taken from patent publication US9546164B2 (GENENTECH, INC., priority 2013, dated 2017).

Data set [1] concerns the target T1, NaV1.5 (Homo sapiens (Human), UniProt Q14524).
Procedure: (§1) The following patch voltage clamp electrophysiology studies were performed on representative compounds of the invention using human embryonic kidney cells (HEK), permanently transfected with an expression vector containing the full-length cDNA coding for the desired human sodium channel α-subunit, grown in culture media containing 10% FBS, 1% PSG, and 0.5 mg/mL G418 at 37° C. with 5% CO2. […] The β1 subunit was coexpressed in both the NaV1.7 and NaV1.5 cell lines.
(§2) Sodium currents were measured rising the patch clamp technique in the whole-cell configuration using either a PatchXpress automated voltage clamp or manually using an Axopatch 200B (Axon Instruments) or Model 2400 (A-M systems) amplifier. […] The pipette was filled with a solution comprised of: 5 mM NaCl, 10 mM CsCl, 120 mM CsF, 0.1 mM CaCl2, 2 mM MgCl2, 10 mM HEPES, 10 mM EGTA; and adjusted to pH 7.2 with CsOH. The external solution had the following composition: 140 mM NaCl, 5 mM KCl, 2 mM CaCl2, 1 mM MgCl2, 10 mM HEPES; and adjusted to pH 7.4 with NaOH. In some studies, the external sodium was reduced by equimolar replacement with choline. Osmolality in the CsF internal and NaCl external solutions was adjusted to 300 mOsm/kg and 310 mOsm/kg with glucose, respectively. All recordings were performed at ambient temperature in a bath chamber with a volume of 150 μL. Control sodium currents were measured in 0.5% DMSO. Controls and representative compounds of the invention were applied to the recording chamber through a 4-pinch or 8-pinch valve bath perfusion system manufactured by ALA Scientific Instruments.
(§3) Currents were recorded at 40 kHz sampling frequency, filtered at 5 Hz, and stored using a Digidata-1322A analogue/digital interface with the pClamp software (Axon instruments). Series resistance compensation was applied (60-80%). […] All statistics in this study are given as mean±SD.
(§4) The membrane potential was maintained at a voltage where reactivation of the channel is complete (which was −60 mV for both NaV1.7 and NaV1.5). The voltage is then stepped back to a very negative (Vhold=150 mV) voltage for 20 ms and then a test poise is applied to quantify the compound block. The 20 ms brief repolarization was long enough for compound-free channels to completely recover from fast inactivation, but the compound-bound channels recovered more slowly such that negligible recovery could occur during this interval. The percent decrease in sodium current following wash-on of compound was taken as the percent block of sodium channels.
A further data set concerns the target hNav1.7 (Homo sapiens (Human), UniProt Q15858). Briefly: Tritiated sulfonamide competitive binding to membranes from cells expressing hNav1.7 and the β1 subunit.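 Also: Filter-bound radioactivity counted by liquid scintillation, nonspecific binding defined with excess unlabelled ligand, IC50 fitted to percent inhibition of specific binding.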
For the next data set, the target named is NaV1.7 (Homo sapiens (Human), UniProt Q15858). Briefly: Patch voltage clamp electrophysiological assay (EP), NaV1.7. In kind it is cell-based. The conditions noted are these: HEK-293 cells stably expressing human NaV1.7 with β1 subunit, whole-cell patch clamp, holding −60 mV. The method, then: Electrophysiological Assay (EP) (In vitro Assay)
Chain of NaV1.7 (Q15858 other isoform, or with tags, fused parts or gaps): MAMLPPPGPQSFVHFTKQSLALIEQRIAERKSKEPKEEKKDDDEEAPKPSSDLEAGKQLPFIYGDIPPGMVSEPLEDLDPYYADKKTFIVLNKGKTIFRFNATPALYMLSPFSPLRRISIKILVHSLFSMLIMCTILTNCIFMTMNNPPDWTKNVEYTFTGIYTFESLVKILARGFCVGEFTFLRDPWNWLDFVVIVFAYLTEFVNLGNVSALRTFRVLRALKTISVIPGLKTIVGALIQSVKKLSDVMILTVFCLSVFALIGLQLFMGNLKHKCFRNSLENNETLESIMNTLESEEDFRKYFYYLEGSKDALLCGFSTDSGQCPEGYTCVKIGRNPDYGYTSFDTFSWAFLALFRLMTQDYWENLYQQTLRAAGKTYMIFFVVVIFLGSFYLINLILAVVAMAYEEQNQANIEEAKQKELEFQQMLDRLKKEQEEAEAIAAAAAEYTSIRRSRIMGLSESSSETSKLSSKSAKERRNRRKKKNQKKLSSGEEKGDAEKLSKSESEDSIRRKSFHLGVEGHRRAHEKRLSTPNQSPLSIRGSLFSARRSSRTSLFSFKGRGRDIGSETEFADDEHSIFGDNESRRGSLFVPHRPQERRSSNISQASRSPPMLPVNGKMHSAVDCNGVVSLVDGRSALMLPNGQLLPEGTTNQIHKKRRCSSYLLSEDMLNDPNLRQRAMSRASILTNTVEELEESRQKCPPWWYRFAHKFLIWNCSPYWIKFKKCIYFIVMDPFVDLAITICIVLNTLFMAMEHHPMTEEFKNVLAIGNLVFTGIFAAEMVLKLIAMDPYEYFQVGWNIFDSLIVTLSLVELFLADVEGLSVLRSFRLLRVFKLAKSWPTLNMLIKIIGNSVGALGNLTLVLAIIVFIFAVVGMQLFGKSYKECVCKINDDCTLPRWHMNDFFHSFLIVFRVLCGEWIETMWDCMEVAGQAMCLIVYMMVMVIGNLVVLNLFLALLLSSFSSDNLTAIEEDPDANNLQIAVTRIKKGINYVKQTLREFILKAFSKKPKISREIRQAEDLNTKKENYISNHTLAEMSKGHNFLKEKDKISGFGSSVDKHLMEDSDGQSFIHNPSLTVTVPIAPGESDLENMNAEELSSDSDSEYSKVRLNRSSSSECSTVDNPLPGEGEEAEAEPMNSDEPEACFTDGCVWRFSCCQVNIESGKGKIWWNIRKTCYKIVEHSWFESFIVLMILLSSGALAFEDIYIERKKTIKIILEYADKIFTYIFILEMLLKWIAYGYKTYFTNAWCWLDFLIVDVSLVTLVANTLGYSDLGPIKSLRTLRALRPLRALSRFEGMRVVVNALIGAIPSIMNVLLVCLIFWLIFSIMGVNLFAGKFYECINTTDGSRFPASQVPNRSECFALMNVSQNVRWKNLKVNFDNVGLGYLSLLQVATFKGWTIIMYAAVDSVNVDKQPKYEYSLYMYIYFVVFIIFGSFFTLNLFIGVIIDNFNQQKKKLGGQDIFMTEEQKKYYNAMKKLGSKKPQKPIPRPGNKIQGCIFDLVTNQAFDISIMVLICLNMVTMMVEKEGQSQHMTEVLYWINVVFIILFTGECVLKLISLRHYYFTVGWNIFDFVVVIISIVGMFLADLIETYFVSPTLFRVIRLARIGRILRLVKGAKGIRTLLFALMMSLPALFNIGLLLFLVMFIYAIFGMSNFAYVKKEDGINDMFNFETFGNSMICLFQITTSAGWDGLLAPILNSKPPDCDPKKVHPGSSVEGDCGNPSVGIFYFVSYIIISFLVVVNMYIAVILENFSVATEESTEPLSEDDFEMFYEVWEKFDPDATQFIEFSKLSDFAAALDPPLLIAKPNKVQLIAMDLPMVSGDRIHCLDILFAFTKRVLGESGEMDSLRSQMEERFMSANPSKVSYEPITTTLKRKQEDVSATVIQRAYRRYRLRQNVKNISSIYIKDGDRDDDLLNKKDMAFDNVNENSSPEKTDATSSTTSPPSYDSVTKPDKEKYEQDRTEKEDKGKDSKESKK
Chain of NaV1.7 (Q07699 19-218 partner): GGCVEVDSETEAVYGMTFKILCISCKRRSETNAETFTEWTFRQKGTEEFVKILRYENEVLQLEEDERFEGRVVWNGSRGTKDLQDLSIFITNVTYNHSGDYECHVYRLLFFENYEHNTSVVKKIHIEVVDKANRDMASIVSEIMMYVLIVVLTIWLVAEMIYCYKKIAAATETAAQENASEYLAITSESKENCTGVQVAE
Control sodium currents were measured in 0.5% DMSO.
Series resistance compensation was applied (60-80%).

In data set [2] the target is T1, NaV1.5. Briefly: Patch voltage clamp electrophysiological assay (EP), NaV1.5.
Procedure: as §1, §2, §3, §4
Where [3] appears, read: read-out: Ligand Binding Assay, 100 pM [3H]compound, membranes with hNav1.7 and β1 subunit, 18 h, room temperature.
Where [4] appears, read: read-out: NaV1.5 EP, HEK-293 cells stably expressing human NaV1.5 with β1 subunit, whole-cell patch clamp, holding −60 mV.

Structures can show the parent of a compound that is named as a salt. Where two headings read alike, the source gives them in different places. Some results are limits rather than exact numbers.

Chain of hNav1.7 (Q15858 other isoform, or with tags, fused parts or gaps): as the sequence (Q15858 other isoform, or with tags, fused parts or gaps) above
Chain of hNav1.7 (Q07699 19-218 partner): as the sequence (Q07699 19-218 partner) above
T1 sequence (Q14524 whole entry): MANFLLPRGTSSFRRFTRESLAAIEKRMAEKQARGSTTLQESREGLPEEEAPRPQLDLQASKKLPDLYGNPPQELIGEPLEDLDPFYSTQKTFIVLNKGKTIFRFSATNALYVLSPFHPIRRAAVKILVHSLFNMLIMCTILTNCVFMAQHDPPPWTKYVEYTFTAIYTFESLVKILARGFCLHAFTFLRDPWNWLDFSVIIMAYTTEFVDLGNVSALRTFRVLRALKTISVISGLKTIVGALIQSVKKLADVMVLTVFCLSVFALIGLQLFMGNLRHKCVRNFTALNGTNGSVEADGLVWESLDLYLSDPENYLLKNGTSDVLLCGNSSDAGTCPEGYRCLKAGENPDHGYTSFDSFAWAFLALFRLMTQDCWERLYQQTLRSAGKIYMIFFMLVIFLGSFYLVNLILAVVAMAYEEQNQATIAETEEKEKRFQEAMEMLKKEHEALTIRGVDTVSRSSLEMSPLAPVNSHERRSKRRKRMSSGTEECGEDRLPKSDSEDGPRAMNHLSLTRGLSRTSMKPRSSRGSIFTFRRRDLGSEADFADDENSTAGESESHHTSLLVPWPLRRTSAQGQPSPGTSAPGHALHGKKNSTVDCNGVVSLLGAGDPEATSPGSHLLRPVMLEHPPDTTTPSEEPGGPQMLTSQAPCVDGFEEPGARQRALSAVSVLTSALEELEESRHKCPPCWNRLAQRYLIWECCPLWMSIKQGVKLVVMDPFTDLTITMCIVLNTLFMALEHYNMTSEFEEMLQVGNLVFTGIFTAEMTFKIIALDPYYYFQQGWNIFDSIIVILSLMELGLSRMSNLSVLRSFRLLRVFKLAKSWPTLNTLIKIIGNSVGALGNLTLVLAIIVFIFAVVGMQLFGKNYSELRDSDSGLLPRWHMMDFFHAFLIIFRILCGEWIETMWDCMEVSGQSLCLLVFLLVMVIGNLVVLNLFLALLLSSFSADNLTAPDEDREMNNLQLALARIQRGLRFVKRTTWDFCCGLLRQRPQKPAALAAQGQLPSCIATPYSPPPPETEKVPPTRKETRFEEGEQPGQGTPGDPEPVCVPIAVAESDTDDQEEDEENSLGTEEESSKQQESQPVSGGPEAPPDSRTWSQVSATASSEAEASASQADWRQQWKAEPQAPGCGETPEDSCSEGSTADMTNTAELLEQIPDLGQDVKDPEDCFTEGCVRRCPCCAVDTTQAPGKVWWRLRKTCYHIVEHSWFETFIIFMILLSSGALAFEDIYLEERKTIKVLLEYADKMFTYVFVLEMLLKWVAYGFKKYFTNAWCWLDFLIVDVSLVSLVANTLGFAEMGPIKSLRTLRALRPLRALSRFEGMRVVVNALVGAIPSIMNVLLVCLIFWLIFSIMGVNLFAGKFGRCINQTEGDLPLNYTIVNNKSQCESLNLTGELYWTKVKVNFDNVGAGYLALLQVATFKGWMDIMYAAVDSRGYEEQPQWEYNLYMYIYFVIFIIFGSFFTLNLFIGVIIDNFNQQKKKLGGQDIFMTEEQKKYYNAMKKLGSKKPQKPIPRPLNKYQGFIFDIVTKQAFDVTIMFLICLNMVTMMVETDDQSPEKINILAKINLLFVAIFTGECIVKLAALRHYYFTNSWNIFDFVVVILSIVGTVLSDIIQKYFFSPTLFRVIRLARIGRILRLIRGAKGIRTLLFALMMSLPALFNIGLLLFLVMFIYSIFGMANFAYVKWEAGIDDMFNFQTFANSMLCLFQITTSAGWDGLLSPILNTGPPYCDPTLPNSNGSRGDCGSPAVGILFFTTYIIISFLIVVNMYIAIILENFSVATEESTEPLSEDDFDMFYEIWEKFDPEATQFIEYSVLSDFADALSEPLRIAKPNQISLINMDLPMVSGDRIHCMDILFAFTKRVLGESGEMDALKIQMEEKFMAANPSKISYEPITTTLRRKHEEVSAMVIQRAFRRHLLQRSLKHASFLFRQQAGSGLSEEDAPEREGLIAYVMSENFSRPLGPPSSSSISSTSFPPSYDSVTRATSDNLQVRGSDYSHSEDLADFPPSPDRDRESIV

For `O=C(NS(=O)(=O)N1CCC1)c1cc(C2CC2)c(OCC2CC3CCC(C2)N3C(c2ccccc2)c2ccccc2)cc1F` (stereo not shown) [Example 49, N-(azetidin-1-ylsulfonyl)-4-((8-benzhydryl-8-azabicyclo[3.2.1]-octan-3-yl)methoxy)-5-cyclopropyl-2-fluorobenzamide], the IC50 against NaV1.5 [1] amounted to 199 nM.

Take `CC(C)(c1cc(Cl)cc(Cl)c1)N1CCC[C@@H](Oc2cc(F)c(C(=O)NS(=O)(=O)C3CC3)cc2C2CC2)C1` [Example 495, (R)-5-cyclopropyl-N-(cyclopropylsulfonyl)-4-((1-(2-(3,5-dichlorophenyl)propan-2-yl)oxy)-2-fluorobenzamide, trifluoroacetic acid salt]: the IC50 was determined as 4.4 nM on hNav1.7 (setting [3]), 0.2 nM at NaV1.7 and 15.4 nM at NaV1.5 [2] (setting [4]).

For `CCS(=O)(=O)NC(=O)c1cc(C2CC2)c(OCC2CCN([C@@H](COC)c3cc(Cl)cc(Cl)c3)CC2)cc1F` (single isomer, unassigned) [Example 168], the IC50 at hNav1.7 (setting [3]) is 6.2 nM; on NaV1.7 it was 3 nM; on NaV1.5 [2] (setting [4]) it was 78 nM.

`CS(=O)(=O)NC(=O)c1cc(C2CC2)c(OCC2CCN(Cc3cc(Cl)cc(Cl)c3C#N)CC2)cc1F` [Example 594, 5-Cyclopropyl-4-((1-(3,5-dichloro-2-cyanobenzyl)piperidin-4-yl)methoxy)-2-fluoro-N-(methylsulfonyl)benzamide]: the IC50 was 137 nM on hNav1.7 (setting [3]), 8.4 nM on NaV1.7 and 623 nM at NaV1.5 [2] (setting [4]).

With `O=C(NS(=O)(=O)N1CCC1)c1cc(C2CC2)c(O[C@@H]2CCCN(Cc3ccccc3)C2)cc1F` [Example 1, (R)—N-(azetidin-1-ylsulfonyl)-4-((1-benzylpiperidin-3-yl)oxy)-5-cyclopropyl-2-fluorobenzamide], the IC50 was found to be 35.6 nM at hNav1.7 (setting [3]), 22.6 nM against NaV1.7 and 2760 nM at NaV1.5 [2] (setting [4]).

On to `CS(=O)(=O)NC(=O)c1cc(C2CC2)c(CN2CCO[C@H](Cc3cc(Cl)cc(Cl)c3)C2)cc1F` [Example 463, (R)-5-cyclopropyl-4-((2-(3,5-dichlorobenzyl)morpholino)methyl)-2-fluoro-N-(methylsulfonyl)benzamide], for which the IC50 at hNav1.7 (setting [3]) is 3.8 nM; against NaV1.7 it was less than 3 nM; at NaV1.5 [2] (setting [4]), 669 nM.

`O=C(NS(=O)(=O)C1CC1)c1cc(C2CC2)c(CN2CCO[C@H](Cc3cc(Cl)cc(Cl)c3)C2)cc1F` [Example 464, (R)-5-cyclopropyl-N-(cyclopropylsulfonyl)-4-((2-(3,5-dichlorobenzyl)morpholino)methyl)-2-fluorobenzamide]: the figures for the IC50 on hNav1.7 (setting [3]), against NaV1.7 and at NaV1.5 [2] (setting [4]) were 2.7 nM, less than 3 nM and 109 nM, respectively.

With `O=C(NS(=O)(=O)N1CCC1)c1cc(C2CC2)c(O[C@@H]2CCCN(Cc3ccc(F)cc3Cl)C2)cc1F` [Example 6, (R)—N-(azetidin-1-ylsulfonyl)-4-((1-(2-chloro-4-fluorobenzyl)piperidin-3-yl)oxy)-5-cyclopropyl-2-fluoroenzamide], the values for the IC50 on hNav1.7, against NaV1.7 and against NaV1.5 [2] were 3 nM, 0.9 nM and 33.1 nM, respectively.
